Entries after “also recorded” stand apart in the source; their conditions may differ. Where a name gives a salt, the structure may show the parent alone.
Key:
BMDC = experiment: Measurement of reactive oxygen species (ROS) in DC with dichlorofluorescein, flow cytometry; type: cell-based, mouse; details: dichlorofluorescein, flow cytometry
Protocol: For the measurement of reactive oxygen species (ROS) in DC and APC, the fluorescent dye 2′,7′ dichlorofluorescein (H2 DCFDA, Molecular Probes, Eugene, USA) was used. 5×10^5 DC were preincubated in 1 ml of RPMI medium (without mercaptoethanol) for 60 mins at 37° C. in the incubator with 1% DMSO or 10 μg/ml DMF+/−NAC (1 mM) or GSX (1 mM). After this preincubation, 1 μM/ml H2 DCFDA was added and the cells incubated for a further 30 mins at 37° C. Within one hour, the fluorescence produced was detected using flow cytometry (FL1).
(§1) As antigen presenting cells (APC), T cell depleted spleen cells from syngenic mice were used. Dendritic cells (DC) which were obtained from bone marrow (BMDC) and cultured with GM-CSF were used for the relevant experiments on day 7 of culturing. For the experiment, in each case an equal number of APC were cultured either with the medium alone, with L-BSO (C8H18N2O3S, 0.5 mM), dimethyl sulfoxide DMSO(C2H6OS), dimethyl fumarate DMF (C6H8O4, dissolved in DMSO, 70 μM), or calcium monomethyl fumarate (MMF; CaC10H10O8, 200 μM). All substances except for MMF (Fumapharm) were purchased from Sigma-Aldrich. At the respective stated times (see below) the cells were either analyzed directly for their GSH content, used for T cell stimulation or stimulated for IL-2 production with Escherichia coli lipopolysaccharides 055.B5 (Sigma-Aldrich) or CpG-DNA 1668 (MWG Biotech) and IL-4 (Stratmann). In order to raise the GSH level again, 1 mM GSH-OEt (C12H21N3O6S; Sigma-Aldrich) or 1 mM NAC (Sigma-Aldrich) was added.
For testing the potential of pharmaceutical substances to induce the ROS, the following procedure was developed: for the measurement of reactive oxygen species (ROS) in cells, the fluorescent dye 2′,7′ dichlorofluorescein (H2 DCFDA) is used. The absorption spectrum of the substance is 492-495 nm and the emission spectrum lies in the range between 517-527 nm. On induction of cell stress, e.g., by the administration of ROS-causing reagents, oxidation of the H2 DCFDA to DCFDA+H2 occurs. The fluorescence arising as a result can be detected using flow cytometry (FL1).

IL-12 = IL-12 production by DC, ELISA of culture supernatants; type: cell-based, mouse; details: after stimulation with LPS
Protocol: IL-4, IL-10, IL-12 and interferon-γ were determined using the ELISA (enzyme linked immunosorbent assay) set or with the use of individual components from BD BioSciences. IL-23 in the supernatant was determined using the ELISA set (eBioscience). For intracytoplasmic cytokine analyses, the T cells were restimulated with PMA/ionomycin or with APC and peptide in the presence of brefeldin A, then fixed and permeabilized and stained. For the surface staining, anti-CD4 or KJ1-26 antibodies were used; the cytokine antibodies (PE labeled) were all obtained from BD Pharmingen.
as §1, with “used for T cell stimulation or stimulated for IL-2 production with Escherichia coli lipopolysaccharides” left out

Structure (SMILES) | intracellular ROS in DC (BMDC) | IL-12 production by DC (IL-12)
COC(=O)/C=C/C(=O)OC [DMF, dimethyl fumarate] | rise in ROS | strong suppression of IL-12 production; also recorded: markedly less; also recorded: markedly decreased capacity to produce IL-12
CCCCS(=N)(=O)CCC(N)C(=O)O [L-BSO, L-buthionine sulfoximine] | rise in intracellular ROS | strong suppression of IL-12 production; also recorded: markedly decreased capacity to produce IL-12
COC(=O)/C=C/C(=O)[O-].[Ca+] [MMF, calcium monomethyl fumarate] | induces ROS | strong suppression of IL-12 production; also recorded: markedly decreased capacity to produce IL-12

— US8618178B2, “Method and substances for treating T-cell mediated autoimmune diseases” (Eberhard-Karls-Universitaet Tuebingen Universitaetsklinikum, priority 2006, dated 2013)
